Test results published in patent publication US5208242A, “5-substituted-4-phenyl-5H-imidazo[4,5-c]pyridine derivatives” (G. D. Searle & Co., priority 1992, dated 1993).

Biological target: T1, PAF receptor (Homo sapiens, UniProt P25105)
T1 construct: tissue Lifesource, Inc. (Glenview, Ill.); host or cells: human packed platelets (washed, freeze-thawed membrane preparation)
Assay: Inhibition of the Specific Binding of [^3 H]PAF to Human Platelet Membrane Preparation
Conditions: 0.75 nM [^3 H]PAF, 30 minutes at 24° C., pH 7.4
Description: Inhibition of the Specific Binding of [^3 H]PAF to Human Platelet Membrane Preparation.
Human packed platelets were obtained from Lifesource, Inc. (Glenview, Ill.) and washed 3 times with 10 mM Trizma pH 7.0, 2 mM EDTA (dipotassium salt), 150 mM KCl and then once with 10 mM Trizma 7.4, 20 mM CaCl2. The platelets were broken by freezing in a dry ice-ethanol bath, followed by thawing in 24° C. water baths. The preparation was centrifugation (40,000×g, 20 minutes, 4' C) and the pellet resuspended in 10 mM Trizma 7.4, 20 mM CaCl2, 5 mg/ml human albumin. Protein concentration in the platelet membrane preparation was determined by the Lowry method [O.H. Lowry et al. J. Biological Chemistry, 193, 265-275 (1951)]. Aliquots of the membrane preparation were stored at -70° C. Each preparation was characterized for PAF receptor number and dissociation constant (Kd). In binding assays 5 μl of test compound, solubilized in DMSO, was added to polypropylene tubes along with 0.75 nM [^ 3 H]PAF and 200 mcl [0.075 nM] of membranes and 95 μl 10 mM Trizma 7.4, […], 5 mg/ml human albumin. Tubes were incubated for 30 minutes at 24° C. […] Filters were prepared and counted for a scintillation counter. […] The IC50 values were determined by the Allfit program using percent displacement data. […]

T1 sequence (P25105 whole entry): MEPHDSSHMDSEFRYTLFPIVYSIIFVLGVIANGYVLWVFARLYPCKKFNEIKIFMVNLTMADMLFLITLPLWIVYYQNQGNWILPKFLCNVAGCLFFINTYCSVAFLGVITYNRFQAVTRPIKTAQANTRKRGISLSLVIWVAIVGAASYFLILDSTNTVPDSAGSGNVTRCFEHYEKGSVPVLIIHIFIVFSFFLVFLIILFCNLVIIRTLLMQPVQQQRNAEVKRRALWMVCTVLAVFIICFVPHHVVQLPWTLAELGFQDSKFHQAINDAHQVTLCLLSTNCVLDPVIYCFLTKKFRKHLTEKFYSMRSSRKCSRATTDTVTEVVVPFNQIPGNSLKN

`COc1cc(C(=O)N(C(C)C)C2CCCCC2)ccc1Cn1ccc2ncnc-2c1-c1ccccc1` [Compound 9, N-cyclohexyl-3-methoxy-N-(1-methylethyl)-4-[(4-phenyl-5H-imidazo[4,5-c]pyridin-5-yl)methyl]benzamide] showed an IC50 of 1.04 µM.
